Tests used:
L. salmonis = test: Example 2: in-feed treatment in fresh water hatchery, natural sea louse infestation after sea transfer, L. salmonis counts; format: in vivo, Lepeophtheirus salmonis on Atlantic salmon (Salmo salar); details: for L. salmonis: all stages, Treated, counts / L. salmonis: pre- & adults, Efficacy / L. salmonis: pre- & adults, Treated, counts: fresh water
Method: Three groups of 400 Atlantic salmon (Salmo salar) of average weight 80 g were treated with medicated pellets containing lufenuron to deliver doses equivalent to 1, 5 and 10 mg/kg/day over 7 consecutive days. A fourth group containing 400 salmon of average weight 80 g was added to the study as a non-treated control group. The medicated pellets were prepared by coating commercially available fish feed pellets with a lufenuron-containing pre-mix to reach a content of 0.005, 0.025 and 0.05% (w/w) lufenuron in the fish feed. The groups were randomized and the identity of the feeds blinded to the site staff. The treatment was undertaken in a fresh water hatchery and the fish transferred to sea water within 7 days of completion of treatment.
On transfer to sea each group was split into two cages and all cage groups were maintained in separate randomized cages.
After treatment, the fish were exposed to natural sea louse infestation. During the study the temperature varied between 1.9 and 8.1° C. Fish weights were assessed at allocation to cages, again approximately 2 weeks after the sea transfer and then at 4 weekly intervals. Sea louse numbers were assessed at approximately 2 weeks after the sea transfer and then at 4 weekly intervals. The numbers of chalimus, pre-adults and adult male, mobile and mature female L. salmonis were recorded for each fish. No distinction was made between chalimus stages I-IV or between pre-adult and adult male stages. Total numbers of Caligus elongatus were also recorded but no significant infestation was established to enable an assessment of efficacy.
Efficacy was calculated using the formula:
% Efficacy=100−(100×mean of treatment group/mean of control).

sea louse = details: injectable, WO99/063824; cited from earlier work
[1] = 1 mg/kg/day 7 days in-feed, 15 days post sea transfer
[2] = 1 mg/kg/day 7 days in-feed, 42 days post sea transfer
[3] = 1 mg/kg/day 7 days in-feed, 76 days post sea transfer
[4] = 1 mg/kg/day 7 days in-feed, 98 days post sea transfer
[5] = 1 mg/kg/day 7 days in-feed, 125 days post sea transfer
[6] = 1 mg/kg/day 7 days in-feed, 154 days post sea transfer
[7] = 5 mg/kg/day 7 days in-feed, 15 days post sea transfer
[8] = 5 mg/kg/day 7 days in-feed, 76 days post sea transfer
[9] = 5 mg/kg/day 7 days in-feed, 98 days post sea transfer
[10] = 5 mg/kg/day 7 days in-feed, 125 days post sea transfer
[11] = 5 mg/kg/day 7 days in-feed, 154 days post sea transfer
[12] = 10 mg/kg/day 7 days in-feed, 15 days post sea transfer
[13] = 10 mg/kg/day 7 days in-feed, 76 days post sea transfer
[14] = 10 mg/kg/day 7 days in-feed, 98 days post sea transfer
[15] = 10 mg/kg/day 7 days in-feed, 125 days post sea transfer
[16] = 10 mg/kg/day 7 days in-feed, 154 days post sea transfer

In the case of `O=C(NC(=O)c1c(F)cccc1F)Nc1cc(Cl)c(OC(F)(F)C(F)C(F)(F)F)cc1Cl` (centres unmarked) [lufenuron, N-{[2,5-Dichlor-4-(1,1,2,3,3,3-hexafluorpropoxy)phenyl]carbamoyl}-2,6-difluorbenzamid], the “L. salmonis: all stages, Treated, counts” value (L. salmonis; [1]) is reported as 0, the “L. salmonis: pre- & adults, Efficacy” value (L. salmonis; [1]) is reported as 100% and the “L. salmonis: pre- & adults, Treated, counts” value (L. salmonis; [1]) is reported as 0. The “L. salmonis: all stages, Treated, counts” value (L. salmonis; [2]) was 0, the “L. salmonis: pre- & adults, Efficacy” value (L. salmonis; [2]) was 100% and the “L. salmonis: pre- & adults, Treated, counts” value (L. salmonis; [2]) was 0. For the same compound, the “L. salmonis: all stages, Treated, counts” value (L. salmonis; [3]) was 0.1, the “L. salmonis: pre- & adults, Efficacy” value (L. salmonis; [3]) was 96.2% and the “L. salmonis: pre- & adults, Treated, counts” value (L. salmonis; [3]) was 0.1. The “L. salmonis: all stages, Treated, counts” value (L. salmonis; [4]) was 0.8, the “L. salmonis: pre- & adults, Efficacy” value (L. salmonis; [4]) was 83.9% and the “L. salmonis: pre- & adults, Treated, counts” value (L. salmonis; [4]) was 0.45. For the same compound, the “L. salmonis: all stages, Treated, counts” value (L. salmonis; [5]) was 0.4, the “L. salmonis: pre- & adults, Efficacy” value (L. salmonis; [5]) was 92.9% and the “L. salmonis: pre- & adults, Treated, counts” value (L. salmonis; [5]) was 0.3. For the same compound, the “L. salmonis: all stages, Treated, counts” value (L. salmonis; [6]) was 0.3, the “L. salmonis: pre- & adults, Efficacy” value (L. salmonis; [6]) was 92.8% and the “L. salmonis: pre- & adults, Treated, counts” value (L. salmonis; [6]) was 0.3. For the same compound, the “L. salmonis: all stages, Treated, counts” value (L. salmonis; [7]) was 0.1, the “L. salmonis: pre- & adults, Efficacy” value (L. salmonis; [7]) was 100% and the “L. salmonis: pre- & adults, Treated, counts” value (L. salmonis; [7]) was 0. For the same compound, the “L. salmonis: all stages, Treated, counts” value (L. salmonis; [8]) was 0, the “L. salmonis: pre- & adults, Efficacy” value (L. salmonis; [8]) was 100% and the “L. salmonis: pre- & adults, Treated, counts” value (L. salmonis; [8]) was 0. The “L. salmonis: all stages, Treated, counts” value (L. salmonis; [9]) was 0.1, the “L. salmonis: pre- & adults, Efficacy” value (L. salmonis; [9]) was 96.4% and the “L. salmonis: pre- & adults, Treated, counts” value (L. salmonis; [9]) was 0.1. For the same compound, the “L. salmonis: all stages, Treated, counts” value (L. salmonis; [10]) was 0, the “L. salmonis: pre- & adults, Efficacy” value (L. salmonis; [10]) was 100% and the “L. salmonis: pre- & adults, Treated, counts” value (L. salmonis; [10]) was 0. The “L. salmonis: all stages, Treated, counts” value (L. salmonis; [11]) was 0, the “L. salmonis: pre- & adults, Efficacy” value (L. salmonis; [11]) was 100% and the “L. salmonis: pre- & adults, Treated, counts” value (L. salmonis; [11]) was 0. For the same compound, the “L. salmonis: all stages, Treated, counts” value (L. salmonis; [12]) was 0.5, the “L. salmonis: pre- & adults, Efficacy” value (L. salmonis; [12]) was 100% and the “L. salmonis: pre- & adults, Treated, counts” value (L. salmonis; [12]) was 0. For the same compound, the “L. salmonis: all stages, Treated, counts” value (L. salmonis; [13]) was 0, the “L. salmonis: pre- & adults, Efficacy” value (L. salmonis; [13]) was 100% and the “L. salmonis: pre- & adults, Treated, counts” value (L. salmonis; [13]) was 0. For the same compound, the “L. salmonis: all stages, Treated, counts” value (L. salmonis; [14]) was 0, the “L. salmonis: pre- & adults, Efficacy” value (L. salmonis; [14]) was 100% and the “L. salmonis: pre- & adults, Treated, counts” value (L. salmonis; [14]) was 0. For the same compound, the “L. salmonis: all stages, Treated, counts” value (L. salmonis; [15]) was 0, the “L. salmonis: pre- & adults, Efficacy” value (L. salmonis; [15]) was 100% and the “L. salmonis: pre- & adults, Treated, counts” value (L. salmonis; [15]) was 0. The “L. salmonis: all stages, Treated, counts” value (L. salmonis; [16]) was 0, the “L. salmonis: pre- & adults, Efficacy” value (L. salmonis; [16]) was 100% and the “L. salmonis: pre- & adults, Treated, counts” value (L. salmonis; [16]) was 0. The “protected the fish against sea louse infestation until at least (time post-treatment)” value (L. salmonis; Example 2, 1 mg/kg treatment) was “five”, the “efficacy over the protection period” value (L. salmonis; Example 2, 1 mg/kg treatment, until at least five month post-treatment) was “approximately 90%” and the “protected the fish against sea louse infestation until (time post-treatment)” value (L. salmonis; Example 2, 5 mg/kg treatment, study continues) was 5 months. For the same compound, the “protected the fish against sea louse infestation up to (time post-treatment)” value (L. salmonis; Example 2, 10 mg/kg treatment, study continues) was 5 months and the “protection against sea louse infestation after injection” value (sea louse) was 128 days.
